# Measurements: paper PMC9947975, “Design, Synthesis, and Biological Evaluation Studies of Novel Naphthalene-Chalcone Hybrids As Antimicrobial, Anticandidal, Anticancer, and VEGFR-2 Inhibitors” (ACS Omega, 2023)
# Key:
# [1] = tested on: S. aureus (ATCC 29213); assay: Antibacterial activity, MIC50 by resazurin fluorometric measurement; format: cell-based, Staphylococcus aureus; details: Staphylococcus aureus, ATCC29213, means of triplicate assays
# Procedure: (§1) Obtained compounds (2a–2j) were evaluated for antibacterial activity against Escherichia coli (E. coli) (ATCC 25922), Pseudomonas aeruginosa (P. aeruginosa) (ATCC 27853), […] (E. faecalis) (ATCC 2942), Bacillus subtilis (B. subtilis) (ATCC 6051), Staphylococcus aureus (S. aureus) (ATCC 29213), and Staphylococcus epidermidis (S. epidermidis) (ATCC 12228). MIC50 values were determined via fluorometric measurements, using resazurin solution.[13] Azithromycin was used as a standard drug in the antibacterial activity test.
# (§2) The antimicrobial activity of obtained derivatives (2a–2j) was screened on six bacterial and three fungal strains according to the standard procedure of CLSI[20] as described in the previous study.[21] The antibacterial activities of the obtained compounds were screened against B. subtilis (ATCC 6051), E. coli (ATCC 25922), E. faecalis (ATCC 2942), P. aeruginosa (ATCC 27853), S. aureus (ATCC 29213), and S. epidermidis (ATCC 12228). The obtained compounds were evaluated for anticandidal activity against C. albicans (ATCC 24433), C. krusei (ATCC 6258), and C. parapsilopsis (ATCC 22019). For antibacterial activity, azithromycin was utilized as a reference drug, whereas voriconazole and fluconazole were used for anticandidal activity.
# [2] = tested on: healthy mouse fibroblast cell (NIH3T3); assay: MTT cytotoxicity test on healthy cells; format: cell-based; details: 24-h treatment, means of quartet assays ± SEM
# Procedure: (§3) The MTT test was performed using 3 different cell lines for calculated IC50 values of obtained compounds. […] For this purpose, the cytotoxic effects of the compounds against the healthy mouse fibroblast cell (NIH3T3) were investigated.
# (§4) The 3-(4,5-dimethylthiazol-2-yl)-2,5-diphenyltetrazolium salt reduction method, or MTT assay, is used to measure the metabolic activity of live cells. […] Doxorubicin is used as a therapeutic drug. MTT assays were carried out as previously explained.[19]
# [3] = tested on: C. parapsilopsis (ATCC 22019); assay: Anticandidal activity, MIC50 by resazurin fluorometric measurement; format: cell-based, Candida parapsilopsis; details: Candida, ATCC22019; means of triplicate assays
# Procedure: (§5) Obtained compounds (2a–2j) were evaluated for anticandidal activity against Candida albicans (C. albicans) (ATCC 24433), Candida krusei (C. krusei) (ATCC 6258), and Candida parapsilopsis (C. parapsilopsis) (ATCC 22019). MIC50 values were determined via fluorometric measurements, using resazurin solution.[13] Voriconazole and fluconazole were used as a standard drug in the anticandidal activity test. […] In general, it is seen that the 2-methoxyethyl substituent increases the anticandidal activity.
# as §2
# [4] = tested on: C. albicans (ATCC 24433); assay: as above; format: cell-based, Candida albicans; details: Candida albicans, ATCC24433, means of triplicate assays
# Procedure: as §5, §2
# [5] = tested on: E. faecalis (ATCC 2942); assay: Antibacterial activity, MIC50 by resazurin fluorometric measurement; format: cell-based, Enterococcus faecalis; details: for MIC50: Enterococcus faecalis, ATCC2942, means of triplicate assays
# Procedure: as §1, §2
# [6] = tested on: HepG2 cell line; assay: MTT cytotoxicity test; format: cell-based; details: Homo sapiens, 24-h treatment, means of quartet assays ± SEM
# Procedure: as §3, §4
# [7] = tested on: A549 cell line; assay: MTT cytotoxicity test; format: cell-based; details: Homo sapiens, A549, 24 h, MTT, 24-h treatment, means of quartet assays ± SEM
# Procedure: as §3, §4
# [8] = tested on: C. krusei (ATCC 6258); assay: Anticandidal activity, MIC50 by resazurin fluorometric measurement; format: cell-based, Candida krusei; details: Pichia kudriavzevii, ATCC6258, means of triplicate assays
# Procedure: as §5, §2
# [9] = tested on: P. aeruginosa (ATCC 27853); assay: Antibacterial activity, MIC50 by resazurin fluorometric measurement; format: cell-based; details: Pseudomonas aeruginosa, ATCC27853; means of triplicate assays
# Procedure: as §1, §2
# [10] = tested on: B. subtilis (ATCC 6051); assay: as above; format: cell-based; details: Bacillus subtilis, ATCC6051; means of triplicate assays
# Procedure: as §1, §2
# [11] = tested on: E. coli (ATCC 25922); assay: as above; format: cell-based; details: Escherichia coli, ATCC25922; means of triplicate assays
# Procedure: as §1, §2
# [12] = tested on: S. epidermidis (ATCC 12228); assay: as above; format: cell-based, Staphylococcus epidermidis; details: Staphylococcus epidermidis, ATCC12228, means of triplicate assays; read-out: MIC50 S. epidermis
# Procedure: as §1, §2
MIC50 [1],MIC50 [3],MIC50 [4],MIC50 [5],melting point,MIC50 [8],MIC50 [9],MIC50 [10],MIC50 [11],MIC50 [12],MIC50 E. faecalis ([5]; means of triplicate assays),SMILES,IC50 [2],IC50 [6],IC50 [7]
31.3 µg/mL,> 100 µg/mL,15.6 µg/mL,31.3 µg/mL,164.6 to 166.1 °C,62.5 µg/mL,62.5 µg/mL,> 100 µg/mL,> 100 µg/mL,31.3 µg/mL,,"CCN1CCN(c2ccc(C(=O)C=Cc3cccc4ccccc34)cc2)CC1 [2b, 1-(4-(4-Ethylpiperazin-1-yl)phenyl)-3-(naphthalen-1-yl)prop-2-en-1-one]",22.9 ± 0.76 µM,45.8 ± 8.4 µM,> 100 µM
62.5 µg/mL,> 100 µg/mL,15.6 µg/mL,31.3 µg/mL,146.8 to 147.5 °C,62.5 µg/mL,62.5 µg/mL,> 100 µg/mL,> 100 µg/mL,31.3 µg/mL,,"CC(C)N1CCN(c2ccc(C(=O)C=Cc3cccc4ccccc34)cc2)CC1 [2c, 1-(4-(4-Isopropylpiperazin-1-yl)phenyl)-3-(naphthalen-1-yl)prop-2-en-1-one]",> 100 µM,96.1 ± 5.46 µM,34.3 ± 5.56 µM
31.3 µg/mL,> 100 µg/mL,62.5 µg/mL,31.3 µg/mL,204.5 to 206.2 °C,> 100 µg/mL,> 100 µg/mL,> 100 µg/mL,> 100 µg/mL,15.6 µg/mL,,"CN1CCN(c2ccc(C(=O)C=Cc3ccc4ccccc4c3)cc2)CC1 [2f, 1-(4-(4-Methylpiperazin-1-yl)phenyl)-3-(naphthalen-2-yl)prop-2-en-1-one]",25.6 ± 0.26 µM,29.7 ± 0.79 µM,35.7 ± 0.37 µM
> 100 µg/mL,> 100 µg/mL,31.3 µg/mL,31.3 µg/mL,213.3 to 214.9 °C,> 100 µg/mL,> 100 µg/mL,> 100 µg/mL,> 100 µg/mL,62.5 µg/mL,,"CC(C)N1CCN(c2ccc(C(=O)C=Cc3ccc4ccccc4c3)cc2)CC1 [2h, 1-(4-(4-Isopropylpiperazin-1-yl)phenyl)-3-(naphthalen-2-yl)prop-2-en-1-one]",66.5 ± 0.98 µM,46.3 ± 1.25 µM,41.3 ± 1.5 µM
> 100 µg/mL,> 100 µg/mL,31.3 µg/mL,15.6 µg/mL,120.2 to 121.9 °C,62.5 µg/mL,62.5 µg/mL,> 100 µg/mL,> 100 µg/mL,31.3 µg/mL,15.7 µg/mL,"C=CCN1CCN(c2ccc(C(=O)C=Cc3cccc4ccccc34)cc2)CC1 [2d, 1-(4-(4-Allylpiperazin-1-yl)phenyl)-3-(naphthalen-1-yl)prop-2-en-1-one]",19.8 ± 1.31 µM,45.1 ± 8.12 µM,71.1 ± 3.08 µM
> 100 µg/mL,62.5 µg/mL,31.3 µg/mL,31.3 µg/mL,150.2 to 152.1 °C,62.5 µg/mL,62.5 µg/mL,> 100 µg/mL,> 100 µg/mL,62.5 µg/mL,,"CN1CCN(c2ccc(C(=O)C=Cc3cccc4ccccc34)cc2)CC1 [2a, 1-(4-(4-Methylpiperazin-1-yl)phenyl)-3-(naphthalen-1-yl)prop-2-en-1-one]",61.9 ± 1.42 µM,> 100 µM,> 100 µM
